The text below walks through data of patent US4387238A, “Epoxysuccinamic acid compounds” (Taisho Pharmaceutical Co., Ltd., priority 1978, dated 1983).

For experiment [1], the system named is adjuvant-induced polyarthritis. The experiment can be described thus: Effect on the development of adjuvant-induced polyarthritis in rat (hind paw volume). Type of experiment: in vivo, Sprague Dawley rat. The conditions noted are these: 30 mg/kg of body weight, daily oral, 8 rats/group. The protocol:
The compounds of the present invention show excellent anti-inflammatory activity as measured by their ability to inhibit adjuvant induced polyarthritis as compared with the known epoxysuccinates. That is, they show potent and continuous effectiveness on oral administration of smaller components than the known epoxysuccinic acid compounds. Effect of the compounds of the present invention on the development of adjuvant-induced polyarthritis in rat was assayed as follows: Adjuvant arthritis is produced by a single intracutaneous injection of 0.1 ml of the adjuvant mixture containing heat-killed mycobacteria of the human Aoyama B strain suspended in liquid paraffin in 0.6% in the middle part of the distal tail of Sprague Dawley rat (female, 8 weeks old). The compounds suspended in 0.5% carboxymethylcellulose solution protect the animal against the development of lession of adjuvant arthritis in daily oral administration beginning on the day of adjuvant injection and continuing for 24 days thereafter. The activity is measured as the mean inhibition percent for the increase of the hind paw volume of the 8 rats/group on the days 17 and 23 on which the legs become inflamed and reach maximum volumes. The compound Nos. in Table 1 are as defined in Examples as described hereinafter.

Experiment [2] has as its target T1, papain (Carica papaya, UniProt P00784).
T1 construct: purchased Sigma Chem. Co
T1 sequence (P00784 134-345): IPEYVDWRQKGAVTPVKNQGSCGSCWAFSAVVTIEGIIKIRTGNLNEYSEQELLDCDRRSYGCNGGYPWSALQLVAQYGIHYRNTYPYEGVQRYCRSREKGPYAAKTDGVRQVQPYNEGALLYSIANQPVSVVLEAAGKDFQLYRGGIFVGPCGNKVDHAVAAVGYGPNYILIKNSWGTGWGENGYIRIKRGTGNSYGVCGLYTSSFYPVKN
Description: Papain inhibitory activity (milk casein proteolysis). Format: biochemical. Further details: unit not given beside the values. The settings on record: amount of inhibitor for 50% inhibition; pH 6.8, 40° C., casein substrate. How it is done:
Papain inhibitory activity of the compounds of the present invention was assayed as follows: To 0.5 ml of a solution of papain (80 μg/ml, Sigma Chem. Co., 2x, cry.), were added 0.25 ml of 40 mM cysteine dissolved in 20 mM disodium ethylenediamine tetraacetic acid solution adjusted pH to 6.8 with sodium hydroxide and 0.25 ml of 33 mM phosphate buffer (pH 6.8) with or without inhibitor. After incubation for 15 minutes at 40° C., the resulting mixture was added to 5 ml of 1% milk casein solution in the same buffer as described above, and further incubated for 10 minutes at 40° C. Then the mixture was mixed with 5 ml of 0.44 M trichloroacetic acid solution and followed by filtration with a sheet of Toyo filter paper No. 4.
The extinction of the filtrate was read at 280 nm. The percent inhibition was calculated from the formula, 100×(B-A)/B; wherein B stands for the absorbance without inhibitor and A for the absorbance with inhibitor. The compound Nos. in Table 2 are as defined in Examples as described hereinafter.

[3] abbreviates: 408 h, day 17, mean inhibition for increase of hind paw volume, read-out: Inhibition(%) 17 days.
The mark [4] stands for this setting: 552 h, day 23, mean inhibition for increase of hind paw volume, read-out: Inhibition(%) 23 days.

Like-named read-outs stand apart in the source and are kept apart here.

On to `O=C(NC1CCCCC1)[C@@H]1O[C@H]1C(=O)OC1CCCC1` (relative stereo) [Compound No. 25, cyclopentyl N-cyclohexyl-2,3-epoxysuccinamate], for which the figures for the inhibition in vivo at 30 mg/kg in experiment [1] (setting [3]) and in experiment [1] (setting [4]) were 76% and 58%, respectively. Further, the ID50 in experiment [2] was 3.68 γ.

On to `O=C(Nc1ccccc1)[C@H]1O[C@@H]1C(=O)OC1CCCCC1` (relative stereo) [Compound No. 45, Cyclohexyl N-phenyl-2,3-epoxysuccinamate], for which the results for the inhibition in vivo at 30 mg/kg in experiment [1] (setting [3]) and in experiment [1] (setting [4]) were 65% and 49%, respectively. In addition, the ID50 in experiment [2] is reported as 5.89 γ.

For the molecule `CC(C)COC(=O)[C@H]1O[C@@H]1C(=O)Nc1ccccc1` (relative stereo) [Compound No. 40, Isobutyl N-phenyl-2,3-epoxysuccinamate], the results for the inhibition in vivo at 30 mg/kg in experiment [1] (setting [3]) and in experiment [1] (setting [4]) were 40% and 35%, respectively. Further, the ID50 in experiment [2] is recorded as 13.20 γ.

For `CCOC(=O)[C@@H]1O[C@H]1C(=O)N1CCC(C)CC1` (relative stereo) [Compound No. 76, ethyl N-3'-methylpentamethylene-2,3-epoxysuccinamate], the inhibition in vivo at 30 mg/kg in experiment [1] (setting [3]) came out at 48%; in experiment [1] (setting [4]), 42%. Besides, in experiment [2], the ID50 is reported as 79.53 γ.

`CCOC(=O)[C@@H]1O[C@H]1C(=O)N(C)C1CCCCC1` (relative stereo) [Compound No. 31, ethyl N-methyl-N-cyclohexyl-2,3-epoxysuccinamate]: the results for the inhibition in vivo at 30 mg/kg in experiment [1] (setting [3]) and in experiment [1] (setting [4]) were 45% and 38%, respectively. Moreover, the ID50 in experiment [2] is on record as 53.19 γ.

As to `CCNC(=O)[C@H]1O[C@@H]1C(=O)OC1CCCCC1` (relative stereo) [Compound No. 66, Cyclohexyl N-ethyl-2,3-epoxysuccinamate], the inhibition in vivo at 30 mg/kg in experiment [1] (setting [3]) was found to be 75%; in experiment [1] (setting [4]) it was 62%. Besides, in experiment [2], the ID50 is given as 11.05 γ.

Take `CCOC(=O)[C@@H]1O[C@H]1C(=O)Nc1ccc([N+](=O)[O-])cc1` (relative stereo) [Compound No. 5, ethyl N-4'-nitrophenyl-2,3-epoxysuccinamate]: the inhibition in vivo at 30 mg/kg in experiment [1] (setting [3]) is 65%; in experiment [1] (setting [4]), 48%. Besides, in experiment [2], the ID50 is 22.32 γ.

With `O=C(NCc1ccccc1)[C@H]1O[C@@H]1C(=O)Oc1ccccc1` (relative stereo) [Compound No. 48, Phenyl N-benzyl-2,3-epoxysuccinamate], the inhibition in vivo at 30 mg/kg worked out at 45% in experiment [1] (setting [3]) and 40% in experiment [1] (setting [4]). In experiment [2], the ID50 is 3.83 γ.

`O=C(O)[C@@H]1O[C@H]1C(=O)NCC1CCCCC1` (relative stereo) [Compound No. 98, potassium N-cyclohexanemethyl-2,3-epoxysuccinamate]: the inhibition in vivo at 30 mg/kg amounted to 55% in experiment [1] (setting [3]) and 41% in experiment [1] (setting [4]). The ID50 in experiment [2] is 0.205 γ.

Consider `CCOC(=O)[C@@H]1O[C@H]1C(=O)Nc1ccccc1` (relative stereo) [Compound No. 1, ethyl N-phenyl-2,3-epoxysuccinamate], for which the inhibition in vivo at 30 mg/kg in experiment [1] (setting [3]) amounted to 70%; in experiment [1] (setting [4]) it was 62%. Moreover, in experiment [2], the ID50 is given as 24.04 γ.

As to `CCOC(=O)[C@H]1O[C@@H]1C(=O)N(C)Cc1ccccc1` (relative stereo) [Compound No. 58, ethyl N-methyl-N-benzyl-2,3-epoxysuccinamate], the ID50 in experiment [2] is reported as 231.50 γ.

As to `CCCOC(=O)[C@@H]1O[C@H]1C(=O)Nc1ccc(I)cc1` (relative stereo) [Compound No. 36, Propyl N-4'-iodophenyl-2,3-epoxysuccinamate], the ID50 in experiment [2] is recorded as 4.04 γ.

For the molecule `COC(=O)[C@H]1O[C@@H]1C(=O)N1CCOCC1` (relative stereo) [Compound No. 70, Methyl N-oxydiethylene-2,3-epoxysuccinamate], the ID50 in experiment [2] is 90.25 γ.

Consider `O=C(OCCCC1CCCC1)[C@@H]1O[C@H]1C(=O)N1CCCC1` (relative stereo) [Compound No. 79, 3'-Cyclopentanepropyl N-tetramethylene-2,3-epoxysuccinamate], for which, in experiment [2], the ID50 was 36.25 γ.

With `CCOC(=O)C1OC1C(=O)N1CCCC1C(=O)OC` (stereo not drawn) [Compound No. 87, ethyl N-1'-carbomethoxytetramethylene-2,3-epoxysuccinamate], the ID50 in experiment [2] is 98.10 γ.

With `CCOC(=O)C1OC1C(=O)N1CCCC1C(=O)OCc1ccccc1` (stereo not drawn) [Compound No. 86, ethyl N-1'-carbobenzoxytetramethylene-2,3-epoxysuccinamate], the ID50 in experiment [2] is on record as 105.50 γ.

For the molecule `O=C(Nc1ccccc1)[C@@H]1O[C@H]1C(=O)OCCC1CCCC1` (relative stereo) [Compound No. 26, 2'-cyclopentylethyl N-phenyl-2,3-epoxysuccinamate], the ID50 in experiment [2] was 2.08 γ.

Regarding `O=C(Nc1ccccc1)[C@@H]1O[C@H]1C(=O)Oc1ccccc1` (relative stereo) [Compound No. 28, phenyl N-phenyl-2,3-epoxysuccinamate], the ID50 in experiment [2] is 6.41 γ.

As for `O=C(Nc1ccccc1)[C@@H]1O[C@H]1C(=O)OCCCC1CCCCC1` (relative stereo) [Compound No. 27, 3'-cyclohexylpropyl N-phenyl-2,3-epoxysuccinamate], the ID50 in experiment [2] is listed as 3.05 γ.

In the case of `C=CCOC(=O)[C@H]1O[C@@H]1C(=O)NCC1CCCC1` (relative stereo) [compound 38, Allyl N-cyclopentanemethyl-2,3-epoxysuccinamate], the ID50 in experiment [2] is recorded as 4.26 γ.

In the case of `CC(C)CCOC(=O)[C@H]1O[C@@H]1C(=O)Nc1ccccc1` (relative stereo) [Compound No. 43, Isoamyl N-phenyl-2,3-epoxysuccinamate], in experiment [2], the ID50 is 3.01 γ.

Take `O=C(Nc1cccc(F)c1)[C@H]1O[C@@H]1C(=O)OCc1ccccc1` (relative stereo) [Compound No. 49, Benzyl N-3'-fluorophenyl-2,3-epoxysuccinamate]: in experiment [2], the ID50 is listed as 3.94 γ.

With `CCOC(=O)[C@@H]1O[C@H]1C(=O)NC1CCCC1` (relative stereo) [Compound No. 18, ethyl N-cyclopentyl-2,3-epoxysuccinamate], the ID50 in experiment [2] is 22.36 γ.

Take `O=C(Nc1ccccc1)[C@@H]1O[C@H]1C(=O)OCC1CCCCC1` (relative stereo) [Compound No. 94, cyclohexanemethyl N-phenyl-2,3-epoxysuccinamate]: the ID50 in experiment [2] is reported as 1.51 γ.

In the case of `COC(=O)[C@H]1O[C@@H]1C(=O)NC1CCCCC1` (relative stereo) [Compound No. 61, Methyl N-cyclohexyl-2,3-epoxysuccinamate], the ID50 in experiment [2] is listed as 19.65 γ.
